Test results reported in patent US8940701B2, “Compounds for, and methods of, treating cancer and inhibiting invasion and metastases” (The Regents of the University of Michigan, priority 2009, dated 2015).
Several values for one entry are separate records, joined by “and”; a condition that tells them apart may be missing. Equal values may be shown once. Read-outs that look alike come from different tables or passages of the source. Bridge positions count the residues as written; N and C are the ends. Square brackets hold non-standard residues; d marks the D form. Peptide text beside a SMILES is read from it. I, II: the chains in the order shown.

Columns and labels:
[1] = test system: metastatic human breast (SUM 52 PE) and prostate (DU 145) cancer cell lines, human microvascular cells (hmvec); type: cell-based; settings: for fold more potent than the unmodified PHSCN: SUM 52 PE and DU 145 invasion
Protocol: Some of the examples below employ an invasion assay utilizing naturally occurring basement membranes from 72 hour sea urchin embryos. Breast and prostate cancer invasion was induced with serum; hmvec invasion was induced with the PHSRN sequence of the plasma fibronectin (pFn) cell binding domain. The assay is described in U.S. Pat. No. 6,001,965, hereby incorporated by reference.
In this example, PHSCN peptides, where the sulfur of the SH group of cysteine was modified to block disulfide bond formation, were tested in an in vitro invasion assay utilizing naturally occurring basement membranes. More specifically, the invasion-inhibiting potencies of S-methylated and S-acetylated derivatives of the PHSCN (SEQ ID NO:1) peptide [i.e. Ac-PHSC(S—CH3)N—NH2 (SEQ ID NO:3) and Ac-PHSC(S—COCH3)N—NH2, (SEQ ID NO:4), respectively] were quantitated [in comparison with PHSCN (SEQ ID NO:1) dimerized by S—S bond formation] with two types of metastatic human cancer cell lines, i.e. a breast cell line (SUM 52 PE) and a prostate cell line (DU 145) (see FIG. 1 and FIG. 2, respectively). These modified peptides prevent breast cancer and prostate cancer invasion at concentrations in the pg/ml range.
In this example, PHSCN peptides, where two L-amino acids are substituted with D-amino acids, were tested in an in vitro invasion assay utilizing naturally occurring basement membranes. More specifically, the invasion-inhibiting potencies of Ac-PHScN—NH2 (SEQ ID NO:7), and Ac-PhScN—NH2 (SEQ ID NO:8) were quantitated [in comparison with Ac-PHSCN—NH2 (SEQ ID NO:12) as well as a scrambled peptide Ac-HSPNC—NH2 (SEQ ID NO:15)] with two types of metastatic human cancer cell lines, i.e. a breast cell line (SUM 52 PE) and a prostate cell line (DU 145) (see FIG. 3 and FIG. 4, respectively), as well as human microvascular cells (“hmvec”) (see FIG. 5). These modified peptides prevent breast cancer and prostate cancer invasion at concentrations in the pg/ml range.
Table I compares IC50's of Ac-PHSCN—NH2 (“PHSCN”) (SEQ ID NO:12), Ac-PhScN—NH2 (SEQ ID NO:8) (“PhScN”), Ac-PHScN—NH2 (SEQ ID NO:7) (“PHScN”), and the S-methylated and S-acetylated PHSCN derivatives [Ac-PHSC(S-Me)N—NH2 (SEQ ID NO:3) and Ac-PHSC(S—COCH3)N—NH2 (SEQ ID NO:4)]. The IC50 for PhScN is over 10,000-fold lower than that for PHSCN.

[2] = test system: DU 145 prostate cancer cells; settings: 20 ug per ml, one hour preincubation, then irradiation
DU 145 prostate cancer = test: subcutaneous DU 145 tumors in nude mice, systemic therapy; type: in vivo, athymic nude mice
Protocol: In this example, PHSCN peptides, where two L-amino acids are substituted with D-amino acids, were tested in vivo. FIG. 6 compares the antitumorigenic effects of systemic Ac-PhScN—NH2 (SEQ ID NO:8) therapy at three different dosages (0.5, 0.05, and 0.005 micrograms per kg) with the antitumorigenic effects of 0.5 mg (500 micrograms) per kg of Ac-PHSCN—NH2 (SEQ ID NO:12) therapy using the DU 145 prostate cancer (as well as with untreated controls). The experiment involved generating subcutaneous DU 145 tumors in nude mice. More specifically, 500,000 suspended DU 145 cells were injected subcutaneously into the flanks of athymic nude mice. All mice were allowed to grow untreated DU 145 tumors in their flanks for about 8 weeks. All 3 therapies (i.e. using the three different dosages) were administered thrice-weekly by tail vein injection after the tumors became palpable. Each treatment group consisted of 8 intramuscular (flank) tumors. After 7 weeks of treatment, when the untreated tumors were very large, all mice were sacrificed at the same time, and all tumors dissected out and measured.

α5β1 integrin [3] = biological target: T1, α5β1 integrin (Homo sapiens, UniProt P08648); test: competition with biotinylated PHSCN binding in SUM149PT cell extracts (blot); settings: PhScN:PHSCN ratios 0:1, 1:1, 10:1, 50:1
Text: In this experiment, biotinylated PHSCN peptide (Ac-PHSCNGGK(Bio)-NH2) (SEQ ID NO:18) was mixed with varying amounts of unlabeled Ac-PhScN—NH2 (SEQ ID NO:8). The mixed peptides were bound to detergent extracts of SUM149PT cells. A denaturing, non-reducing gel was run, blotted, and reacted with anti biotin primary antibody (FIG. 7). PhScN:PHSCN ratios were 0:1, 1:1, 10:1, or 50:1, as shown in lanes 2-5, respectively. Lane 1 contains the biotinylated α5β1 control. […] Thus, it is likely to interact with the same target site on α5 integrin as the PHSCN peptide. Alternatively PhScN binding could produce a structural or conformational change in the α5 subunit, such as a change in disulfide bonding pattern, that prevents binding of biotinylated PHSCN.

BxPC-3 cells = test: invasion of irradiated cells on SU-ECM basement membranes; type: cell-based; settings: 1 μg/ml peptide, single 3 Gy dose, 16 hours
Protocol: (§1) Adherent BxPC-3 and Panc1 cells were irradiated. Panc1 cells received a single 2 Gy dose. BxPC-3 cells received a single 3 Gy dose. Approximately 45 minutes later, the cells were suspended (trypsinized), pelleted and resuspended in medium containing 10% fetal calf serum. Then, the appropriate concentration of the Ac-PHSCN—NH2 (SEQ ID NO: 12) peptide, as well as a scrambled peptide Ac-HSPNC—NH2 (SEQ ID NO:15), was added to the suspended cells to make a final peptide concentration of 1 μg/ml, and they were dropped onto the surfaces of SU-ECM (sea urchin embryo basement membranes). At the time the cells were placed on the basement membranes, one hour had elapsed since irradiation. Cells were incubated on the basement membranes for 16 hours at 37° C. in 5% CO2, prior to scoring at 400-fold magnification, under phase contrast optics. All single cells adherent to the basement membranes were scored, with respect to whether they were inside the basement membranes (invaded), or were still adherent to the exterior surface (uninvaded). Mean invasion percentages were determined with their first standard deviations for each sample.

Panc1 cells = test: as above; type: cell-based; settings: 1 μg/ml peptide, single 2 Gy dose, 16 hours
Protocol: as §1

[4] = test system: hmvec, normal human microvascular cells; settings: cited from earlier work
α5β1 integrin [5] = biological target: T1, α5β1 integrin; test: surface α5β1 levels on irradiated pancreatic cancer cells (immunofluorescence); type: cell-based; set-up: surface α5β1 levels on irradiated pancreatic cancer cells; endogenous in cells; host or cells: Panc1 and BxPC-3 pancreatic cancer cells; settings: 1 μg per ml prebound 1 hour; Panc1 2 Gy, BxPC-3 3 Gy; 1 hr and 2 hr
Protocol: In this example, antibodies are used to measure downregulation of surface α5β1 levels on irradiated pancreatic cancer cells. Cells were prebound to 1 μg per ml Ac-PHSCN—NH2 (SEQ ID NO:12) peptide per 20,000 cells in medium containing 10% fetal bovine serum for serum for 1 hour at 37° C. The peptide-containing medium was removed, and replaced with serum-containing medium, prior to irradiation. Adherent cells were irradiated once: 2 Gy for Panc1 cells, and 3 Gy for BxPC-3 cells. One hour after irradiation, cells were quickly rinsed with phosphate-buffered saline (PBS) pH 7.4), then fixed for 15 minutes in 4% Paraformaldahyde (commercially available from Fluka) in PBS at room temperature. […] After three PBS washes, cells were incubated in anti-mouse IgG secondary antibody, conjugated with fluorosceine isothiocyanate (FITC) fluorescence marker (commercially available from Jackson ImmunoResearch Lab, Inc) at 1:200 dilution for 1 h at room temperature. […]
Means and first standard deviations (SD) were calculated using Image-Pro Plus software over 30 areas per treatment selected randomly under 400-fold magnification, then copied and pasted on Microsoft Excel data sheets for further data analysis. All data (see FIG. 10) are expressed as mean±SD and evaluated with ANOVA Student t-test. […]

[6] = test system: human breast and prostate cancer cell lines; settings: systemic; cited from earlier work
end-stage human cancers = settings: cited from earlier work

CC(=O)N1CCC[C@H]1C(=O)N[C@@H](Cc1c[nH]cn1)C(=O)N[C@@H](CO)C(=O)N[C@@H](CSSC[C@H](NC(=O)[C@H](CO)NC(=O)[C@H](Cc1c[nH]cn1)NC(=O)[C@@H]1CCCN1C(C)=O)C(=O)N[C@@H](CC(N)=O)C(N)=O)C(=O)N[C@@H](CC(N)=O)C(N)=O [(PHSCN)2] (I: Ac-PHSCN-NH2 / II: Ac-PHSCN-NH2; disulfide I:4-II:4; N-terminus and C-terminus assumed)
IC50 (concentration exhibiting a 50% inhibition of invasion, relative to stimulated controls) ([1]; 72 h): 100 to 500 pg/mL

CSC[C@H](NC(=O)[C@H](CO)NC(=O)[C@H](Cc1c[nH]cn1)NC(=O)[C@@H]1CCCN1C(C)=O)C(=O)N[C@@H](CC(N)=O)C(N)=O [PHSC(S—CH3)N, Ac-PHSC(S—CH3)N—NH2] (Ac-PHSC(Me)N-NH2)
IC50 (concentration exhibiting a 50% inhibition of invasion, relative to stimulated controls) ([1]; 72 h): 1 pg/mL | fold more potent than the unmodified PHSCN [1]: ~1000 fold | invasion-inhibiting potency relative to comparators, in words ([1]; listed as S-Me): many orders of magnitude more potent

CC(=O)N1CCC[C@H]1C(=O)N[C@@H](Cc1c[nH]cn1)C(=O)N[C@@H](CO)C(=O)N[C@H](CS)C(=O)N[C@@H](CC(N)=O)C(N)=O [Ac-PHScN-NH2] (Ac-PHS[dC]N-NH2)
invasion-inhibiting potency relative to comparators, in words [1]: better than the controls, albeit not as potent as the two D-amino acid-containing peptide | IC50 (concentration exhibiting a 50% inhibition of invasion, relative to stimulated controls) ([1]; 72 h): 5 pg/mL

Ac-PHSC(Ac)N-NH2 [PHSC(S—COCH3)N, Ac-PHSC(S—COCH3)N—NH2]
IC50 (concentration exhibiting a 50% inhibition of invasion, relative to stimulated controls) ([1]; 72 h): 0.1 pg/mL | fold more potent than the unmodified PHSCN [1]: ~100,000 fold | invasion-inhibiting potency relative to comparators, in words ([1]; listed as S-OAc): many orders of magnitude more potent

PHSCNGGKMAP [PHSCNGGK-MAP (8), Ac-PHSCNGGK-MAP, multiantigenic peptide dendrimer of the parent peptide]
enhancement ratio (MED control / MED with dendrimer) [2]: larger than one | IC50 (concentration exhibiting a 50% inhibition of invasion, relative to stimulated controls) ([1]; cell type not given): 300 pg/mL

CC(=O)N1CCC[C@H]1C(=O)N[C@H](Cc1c[nH]cn1)C(=O)N[C@@H](CO)C(=O)N[C@H](CS)C(=O)N[C@@H](CC(N)=O)C(N)=O [Ac-PhScN-NH2] (Ac-P[dH]S[dC]N-NH2)
visible tumor tissue after treatment (DU 145 prostate cancer; 0.5 μg/kg thrice-weekly by tail vein injection, 7 weeks of treatment): no tumor tissue was visible | potency as inhibitor of tumorigenesis in vivo relative to Ac-PHSCN—NH2 (DU 145 prostate cancer; mouse, in vivo): orders of magnitude more potent | competition for biotinylated PHSCN binding to the α5 integrin subunit (α5β1 integrin [3]): efficient competitor | concentration range demonstrating inhibition of invasion [1]: 3 to 10 pg/ml and 5.0 to 16.7 pM | fold lower IC50 than that for PHSCN [1]: over 10,000 fold | invasion-inhibiting potency relative to comparators, in words [1]: orders of magnitude more potent | IC50 (concentration exhibiting a 50% inhibition of invasion, relative to stimulated controls) ([1]; 72 h): 0.3 pg/mL

Ac-HSPNC—NH2 (Ac-HSPNC-NH2) [scrambled peptide control]
invasion after irradiation (BxPC-3 cells): no inhibition of invasiveness | invasion after irradiation (Panc1 cells): no inhibition of invasiveness

Ac-PHSCN-NH2 [PHSCN, Ac-PHSCN—NH2]
mean tumor diameter: untreated tumors fold larger relative to treated tumors (DU 145 prostate cancer; 0.5 mg per kg thrice-weekly by tail vein injection, 7 weeks of treatment): over 6 fold | potency at preventing hmvec invasion [4]: equally potent | invasion after irradiation (BxPC-3 cells): reduced invasion to zero | invasion after irradiation (Panc1 cells): reduced invasion to zero | α5β1 expression on irradiated cancer cells (α5β1 integrin [5]): dramatically downregulated | concentration preventing metastatic disease progression [6]: 1 to 2 µM | dosage preventing metastatic disease progression [6]: 0.5 to 50 mg/kg | adverse events (end-stage human cancers; human, in vivo): without significant adverse events | time metastatic disease progression was prevented (end-stage human cancers; thrice-weekly systemic monotherapy): 4 to 14 months | IC50 (concentration exhibiting a 50% inhibition of invasion, relative to stimulated controls) ([1]; 72 h): 30,000 pg/ml
